Measurements taken from patent publication US20100048634A1, “METHOD FOR TREATING APATHY SYNDROME” (priority 2005, published 2010).

Columns and labels:
Assay type in all cases: in vivo, human
[1] = tested on: post-stroke patients; assay: Controlled clinical trial against placebo, Apathy Evaluation Scale
Protocol: Apathy Evaluation Scale (AES) is used as a measure of apathy severity. Items and factor structure of AES are listed in Marin, et al. (Psychiatry Res. 1991; 38(2):143-62). The assessment, the impairment, as well as and the need of recovery of apathy and cognitive function after stroke are illustrated by Robert G. Robinson “The Clinical Neuropsychiatry of Stroke”, 1998, Cambridge University Press, pages 143, 222-225 and 292-293.
(§1) In this trial, nefiracetam was administered orally to 103 post-stroke patients, who all have some degree of depression, for up to twelve weeks after the vascular event. Concurrently, 56 patients received placebo (placebo group). Of the 103 post-stroke patients treated with nefiracetam, 55 received 600 mg daily (600 mg group), and 48 received 900 mg daily (900 mg group). The three groups of patients were followed for up to 12 weeks, and evaluated at the end of week 4, the end of week 8, and the end of week 12, by measuring the Apathy Evaluation Scale (a symptom scale for measuring apathy), and by measuring SDMT (for measuring cognitive function).

[2] = tested on: post-stroke patients having moderate to severe depression; assay: Apathy Scale (AS) in post-stroke patients having moderate to severe depression; details: 600 or 900 mg/day oral, 12 weeks, especially high dose
From the text: Apathy Scale (AS) is an abbreviated version of the AES. Items and scoring of Papthy Scale can be found, for example, at Starkstein, et al., J Neuropsychiatry Clin. Neurosciences, 4: 134-139 (1992).
(§2) In 151 post-stroke patients having moderate to severe depression, the intervention-free data of Apathy Scale (AS), as a valid measure of apathy, and of Hamilton Rating Scale of Depression (HAM-D) and Beck Depression Inventory (BDI), as valid measures of depression, were collected and analyzed using the method of confirmatory factor analysis. HAM-D and BDI are fully validated and are widely used measures of the severity of depression. HAM-D (Hamilton, J Neurol. Neurosurg. Psychiatry. 23:56-62, 1960) is rated by a professional. BDI (Arch Gen Psychiatry. 4:561-571, 1961) is rated by a patient.
(§3) The 151 patients, who were evaluated at least once after treatment, included the 103 patients studied in Example 1. The 151 patients were divided in three groups each orally receiving placebo (51 patients) or nefiracetam at 600 mg/day (54 patients) or nefiracetam at 900 mg/day (46 patients).
(§4) The data at the end of 12 weeks were analyzed and summarized as follows: […]

[3] = tested on: post-stroke patients having moderate to severe depression; assay: Hamilton Rating Scale of Depression (HAM-D) in post-stroke patients having moderate to severe depression; details: 600 or 900 mg/day oral; 12 weeks; consistent across various severity of baseline apathy
From the text: as §2, §3, §4

[4] = tested on: post-stroke patients; assay: Controlled clinical trial against placebo, symbol digit modality test (SDMT), cognitive function; details: for change in cognitive function (SDMT): at 4 weeks, placebo 3.2; for average improvement in cognitive function (SDMT): last visit, placebo 4.2; for improvement in the SDMT scale: patients with cortical strokes, week 12, placebo 2.7
From the text: Cognitive function can be measured using a tool called the symbol digit modality test (SDMT). In this test, patients have a legend which links each digit to a specific graphical, non-text symbol. The patients have a pre-specified, fixed period of time to match, in writing, as many digits to a list of symbols as possible. The number of correctly matched digits to symbols provides a measure of a range of cognitive functions, including executive function, attention, memory, and motor function (Joy, et.al. Arch Clin Neuropsychol. 19:759-67, 2004; Joy, et.al. Clin Neuropsychol. 17:182-94; 2003)
as §1

[5] = 600 and 900 mg daily oral, up to 12 weeks

Cc1cccc(C)c1NC(=O)CN1CCCC1=O [nefiracetam] was tested, and the “improvement in apathy (Apathy Evaluation Scale)” value ([1]; 600 mg daily oral, at 4 weeks, placebo 1.4) was 1.9 point, the “average improvement in apathy (Apathy Evaluation Scale)” value (“average improvement in apathy” for short) ([1]; 600 mg daily oral, cortical stroke patients, last visit carried forward, placebo 1.0) was 3.4 and the “improvement in apathy (Apathy Evaluation Scale)” value ([1]; 600 mg daily oral, cortical strokes and significant baseline apathy (greater than 18), last visit, placebo 5.4) was 9.4 points. For the same compound, the “average improvement in apathy” value ([1]; 600 mg daily oral, last visit (12 weeks), placebo 1.4) was 2.1 points, the “average improvement in apathy” value ([1]; 600 mg daily oral, patients treated within 28 days of the stroke, placebo 0.6) was 1.3 points and the “improvement in apathy (Apathy Evaluation Scale)” value ([1]; 900 mg daily oral, at 4 weeks, placebo 1.4) was 1.9 point. The “average improvement in apathy” value ([1]; 900 mg daily oral, cortical stroke patients, last visit carried forward, placebo 1.0) was 5.2 points, the “improvement in apathy (Apathy Evaluation Scale)” value ([1]; 900 mg daily oral, cortical strokes and significant baseline apathy (greater than 18), last visit, placebo 5.4) was 11.7 points and the “average improvement in apathy” value ([1]; 900 mg daily oral, last visit (12 weeks), placebo 1.4) was 3.4 points. The “average improvement in apathy” value ([1]; 900 mg daily oral, patients treated within 28 days of the stroke, placebo 0.6) was 6.1 points, the “change in apathy syndrome in comparison to the placebo group (in words)” value [1, 5] was “dose-dependent and time-dependent change in apathy syndrome” and the “reduction in apathy measured by the Apathy Scale versus placebo (in words)” value ([2]; consistent across moderate to severe and severe depression) was “more reduction in apathy than did patients on placebo”. The “reduction in apathy measured by the Apathy Scale versus placebo (in words)” value ([2]; consistent across various severity of baseline apathy) was “more reduction in apathy than did patients on placebo”, the “reduction in depression measured by HAM-D versus placebo (in words)” value [3] was “patients on placebo showed slightly more reduction in depression than did patients on active treatment” and the “change in cognitive function (SDMT)” value ([4]; 600 mg daily oral) was 4.1 point. For the same compound, the “average improvement in cognitive function (SDMT)” value ([4]; 600 mg daily oral) was 5.7 points, the “improvement in the SDMT scale” value ([4]; 600 mg daily oral) was 7 points and the “change in cognitive function (SDMT)” value ([4]; 900 mg daily oral) was 4.4 point. The “average improvement in cognitive function (SDMT)” value ([4]; 900 mg daily oral) was 6.6 points, the “improvement in the SDMT scale” value ([4]; 900 mg daily oral) was 14.2 points and the “improvements in cognitive function as measured by the SDMT (in words)” value [4, 5] was “dose-dependent and time-dependent improvements in cognitive function”.
